Results: patent US6713251B2, “Method for detection of drug-induced mutations in the reverse transcriptase gene” (Innogenetics N.V., priority 1996, dated 2004)

How the values were obtained:
CD4 cells = test: Follow-up of CD4 cell count in treated HIV-1 infected patients; assay type: in vivo, human
Procedure: (§1) Plasma samples were taken from HIV type-1 infected patients and stored at −20° C. until use. Patients were treated with AZT, ddI, ddC, D4T, 3TC, or several combinations of these prodrugs. The European serum samples tested were randomly selected. For the US serum collection, only the first sample from a follow-up series was taken. Some of these US patients were treated, others were not treated.
We selected follow-up samples from three patients and analyzed the viral genotype on the 48 LiPA probes. FIG. 3 illustrates the applicability of genotypic resistance measurement in conjunction with the analysis of viral load and CD4 cell count.

HIV-1 = test: Follow-up of plasma HIV RNA copy number (viral load, HIV Monitor test) in treated patients; assay type: in vivo, human
Procedure: as §1
For cDNA synthesis and PCR amplification, the RNA pellet was dissolved in 15 μl random primers (20 ng/μl, pdN6, Pharmacia), prepared in DEPC-treated or HPLC grade water. After denaturation at 70° C. for 10 minutes, 5 μl cDNA mix was added, composed of 4 μl 5×AMV-RT buffer (250 mM Tris.HCl pH 8.5, 100 mM KCl, 30 mM MgCl2, 25 mM DTT), 0.4 μL 25 mM dXTPs, 0.2 μl or 25U Ribonuclease Inhibitor (HPRI, Amersham), and 0.3 μl or 8U AMV-RT (Stratagene). CDNA synthesis occurred during the 90 minutes incubation at 42° C. The HIV RT gene was then amplified using the following reaction mixture. […] Nested round PCR products were analysed on agarose gel and only clearly visible amplification products were used in the LiPA procedure. Quantification of viral RNA was obtained with the HIV Monitor™test (Roche, Brussels, Belgium).
We selected follow-up samples from three patients and analyzed the viral genotype on the 48 LiPA probes. […]

## Nc1ccn([C@@H]2CS[C@H](CO)O2)c(=O)n1 [3TC, (−)-β-L-2′,3′-dideoxy-3′-thioCytidine]
CD4 cells; Patient 94013, 3TC monotherapy from week 2 onwards, highest level at week 10
  CD4 count increase: ~2.5 fold
HIV-1; Patient 94013, 3TC monotherapy from week 2 onwards
  Viral load decrease: 3 log units

## Cc1cn([C@H]2C[C@H](N=[N+]=[N-])[C@@H](CO)O2)c(=O)[nH]c1=O [AZT, 3′-azido-2′,3′-dideoxyThymidine]
CD4 cells; Patient 92021, AZT monotherapy from week 10, peak at week 21
  Change in CD4 count: initially increased
HIV-1; Patient 92021, ten weeks of AZT treatment (from week 10), values of week 16 and 19
  Effect on viral load: did not result in a drop in viral load
